From ChEMBL document CHEMBL1201862, “PubChem BioAssay data set” (2004)
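Briefly, cells in 96-well plates were exposed to five compound concentrations for 48 h, and endpoints were estimated by linear interpolation. At the GI50, growth is halved.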 Activity calls are given as the source filed them. No stated cut-off is given here; in the data, active = GI50 up to about 1.1 µM and inactive = higher.

What was measured:
Test in all cases: growth of human tumour cells (NCI), 48 h
786-0 = tested on: 786-0
BT-549 = tested on: BT-549
CAKI-1 = tested on: CAKI-1
EKVX = tested on: EKVX
HL-60 = tested on: HL-60
HOP-62 = tested on: HOP-62
Hs-578T = tested on: Hs-578T
LOX IMVI = tested on: LOX IMVI
MDA-N = tested on: MDA-N
OVCAR-3 = tested on: OVCAR-3
OVCAR-8 = tested on: OVCAR-8
RXF 393 = tested on: RXF 393
SF-539 = tested on: SF-539
SK-MEL-28 = tested on: SK-MEL-28
SK-MEL-2 = tested on: SK-MEL-2
SN12C = tested on: SN12C
SW-620 = tested on: SW-620
TK-10 = tested on: TK-10
U-251 = tested on: U-251
SK-OV-3 = tested on: SK-OV-3

Measured: GI50

c1ccc(/N=C2\SC(c3ccccc3)CN2C23CC4CC(CC(C4)C2)C3)cc1 (centres undefined)
inactive: 786-0 > 100 µM | BT-549 > 100 µM | CAKI-1 > 100 µM | EKVX > 100 µM | HL-60 > 100 µM | HOP-62 > 100 µM | Hs-578T > 100 µM | LOX IMVI > 100 µM | MDA-N > 100 µM | OVCAR-3 > 100 µM | OVCAR-8 > 100 µM | RXF 393 > 100 µM | SF-539 > 100 µM | SK-MEL-28 > 100 µM | SK-MEL-2 > 100 µM | SN12C > 100 µM | SW-620 > 100 µM | TK-10 > 100 µM | U-251 > 100 µM

Cc1cc(N(CCCl)CCCl)ccc1/C=N/NC(=O)Cc1cc(=O)oc2cc(O)ccc12
inactive: 786-0 18.8 µM | BT-549 13.4 µM | CAKI-1 6.4 µM | EKVX 20.4 µM | HL-60 12.2 µM | HOP-62 19 µM | Hs-578T 17.2 µM | LOX IMVI 12.6 µM | MDA-N 12.7 µM | OVCAR-3 21.3 µM | OVCAR-8 19.5 µM | RXF 393 16.6 µM | SF-539 18 µM | SK-MEL-28 12.6 µM | SK-MEL-2 32.3 µM | SN12C 16 µM | SW-620 21.4 µM | U-251 14.2 µM

O=C1O[C@H](COC(=O)c2ccccc2)[C@@H](OC(=O)c2ccccc2)C=C1OC(=O)c1ccccc1
inactive: 786-0 18.2 µM | BT-549 16.4 µM | CAKI-1 23.8 µM | EKVX 17.7 µM | HL-60 10.5 µM | HOP-62 20 µM | Hs-578T 33 µM | LOX IMVI 19.8 µM | MDA-N 31.7 µM | OVCAR-3 18.3 µM | OVCAR-8 21.8 µM | RXF 393 17 µM | SF-539 17.6 µM | SK-MEL-2 23.5 µM | SK-OV-3 > 100 µM | SN12C 18.8 µM | SW-620 19 µM | TK-10 27.9 µM | U-251 18.2 µM

Cc1cn(C2CC(N=[N+]=[N-])C(C(=O)O)O2)c(=O)[nH]c1=O (centres undefined)
inactive: 786-0 > 100 µM | BT-549 > 100 µM | CAKI-1 > 100 µM | EKVX > 100 µM | HL-60 > 100 µM | HOP-62 > 100 µM | Hs-578T > 100 µM | MDA-N > 100 µM | OVCAR-3 > 100 µM | OVCAR-8 > 100 µM | RXF 393 > 100 µM | SF-539 > 100 µM | SK-MEL-2 > 100 µM | SK-OV-3 > 100 µM | SN12C > 100 µM | SW-620 > 100 µM | TK-10 > 100 µM | U-251 > 100 µM

C#CCOCC12C=CC(O1)C1C(=O)OCC12 (centres undefined)
inactive: 786-0 > 100 µM | BT-549 > 100 µM | CAKI-1 > 100 µM | EKVX > 100 µM | HL-60 > 100 µM | HOP-62 > 100 µM | Hs-578T > 100 µM | LOX IMVI > 100 µM | MDA-N > 100 µM | OVCAR-3 > 100 µM | OVCAR-8 > 100 µM | RXF 393 > 100 µM | SF-539 > 100 µM | SK-MEL-28 > 100 µM | SK-OV-3 > 100 µM | SN12C > 100 µM | SW-620 > 100 µM | TK-10 > 100 µM | U-251 > 100 µM

CC1(C)OC2C(=O)C=C(COCc3ccccc3)C2O1 (centres undefined)
inactive: 786-0 42.8 µM | BT-549 15.6 µM | CAKI-1 35.3 µM | EKVX 37.5 µM | HL-60 11.2 µM | HOP-62 26.4 µM | Hs-578T 27 µM | LOX IMVI 25.6 µM | MDA-N 34.8 µM | OVCAR-8 34.2 µM | RXF 393 15.5 µM | SF-539 30 µM | SK-MEL-28 30 µM | SK-MEL-2 38.9 µM | SK-OV-3 9.44 µM | SN12C 28 µM | SW-620 23.6 µM | TK-10 28.2 µM | U-251 29.2 µM

O=C(Nc1cccc2ccccc12)c1cc2ccccc2oc1=O
inactive: 786-0 13.7 µM | BT-549 > 100 µM | CAKI-1 48 µM | HL-60 > 100 µM | HOP-62 14.5 µM | Hs-578T 32.8 µM | LOX IMVI > 100 µM | MDA-N > 100 µM | OVCAR-3 70.5 µM | OVCAR-8 39.4 µM | RXF 393 22.6 µM | SF-539 14.6 µM | SK-MEL-28 > 100 µM | SK-MEL-2 40.6 µM | SK-OV-3 30.2 µM | SN12C > 100 µM | SW-620 > 100 µM | U-251 34 µM

CCCCCCCCCCCCCCCCOCC(COP(=O)([O-])OCC[n+]1ccc(N(C)C)cc1)OCC (centres undefined)
inactive: 786-0 18 µM | BT-549 7.74 µM | HL-60 1.52 µM | HOP-62 12.3 µM | Hs-578T 17.9 µM | LOX IMVI 12.6 µM | MDA-N 17 µM | OVCAR-3 11.4 µM | OVCAR-8 19.5 µM | RXF 393 16.3 µM | SF-539 13.5 µM | SK-MEL-28 17.6 µM | SK-MEL-2 13.4 µM | SN12C 19.7 µM | SW-620 18.3 µM | TK-10 14.9 µM | U-251 11.7 µM

CC1C(C#N)(C#N)C(C#N)=C(N)C1(C)[N+](=O)[O-] (centres undefined)
inactive: 786-0 56 µM | BT-549 42.1 µM | CAKI-1 5.27 µM | EKVX 21.5 µM | HL-60 29.8 µM | HOP-62 > 100 µM | Hs-578T 64.9 µM | LOX IMVI 37.7 µM | MDA-N 64.6 µM | OVCAR-3 67.9 µM | OVCAR-8 65.8 µM | RXF 393 43.1 µM | SF-539 31.5 µM | SK-MEL-2 > 100 µM | SK-OV-3 > 100 µM | SN12C 58.2 µM | SW-620 51.1 µM | TK-10 > 100 µM | U-251 48 µM

CC1(C)CC(O)C(C)(C)[C@@H](O)C1 (some centres undefined)
inactive: 786-0 > 100 µM | BT-549 > 100 µM | CAKI-1 > 100 µM | EKVX > 100 µM | HL-60 > 100 µM | HOP-62 > 100 µM | Hs-578T > 100 µM | LOX IMVI > 100 µM | MDA-N > 100 µM | OVCAR-8 > 100 µM | RXF 393 28.7 µM | SF-539 > 100 µM | SK-MEL-28 > 100 µM | SK-MEL-2 > 100 µM | SK-OV-3 > 100 µM | SN12C > 100 µM | SW-620 > 100 µM | TK-10 > 100 µM | U-251 > 100 µM

O=C(/C=C/c1ccccc1)c1cc(CN2CCOCC2)c(O)c(CN2CCOCC2)c1
inactive: 786-0 9.42 µM | BT-549 28 µM | CAKI-1 2.26 µM | EKVX 25.3 µM | HL-60 4.57 µM | HOP-62 16.8 µM | Hs-578T 35.6 µM | LOX IMVI 4.65 µM | MDA-N 19.7 µM | OVCAR-3 12.2 µM | OVCAR-8 25.2 µM | RXF 393 14.1 µM | SF-539 15.1 µM | SK-MEL-28 14.5 µM | SK-MEL-2 23.4 µM | SN12C 11.9 µM | SW-620 12.3 µM | TK-10 20.6 µM | U-251 4.51 µM
